pIC50: −log10 of the molar value.

IC50 data for 25 molecules are collected here from US12637440B2, “Amide derivative useful as diacylglycerol acyltransferase 2 inhibitor, and use thereof” (LG CHEM, LTD., priority 2019, dated 2026).

For this test, the target named is T1, Recombinant human DGAT2 protein (Homo sapiens, UniProt Q96PD7).
T1 construct: FLAG (DYKDDDDK); (N); made in house; host or cells: Sf-21 insect cells (BacPAK baculovirus system); used as a membrane preparation
T1 sequence (Q96PD7 1-388): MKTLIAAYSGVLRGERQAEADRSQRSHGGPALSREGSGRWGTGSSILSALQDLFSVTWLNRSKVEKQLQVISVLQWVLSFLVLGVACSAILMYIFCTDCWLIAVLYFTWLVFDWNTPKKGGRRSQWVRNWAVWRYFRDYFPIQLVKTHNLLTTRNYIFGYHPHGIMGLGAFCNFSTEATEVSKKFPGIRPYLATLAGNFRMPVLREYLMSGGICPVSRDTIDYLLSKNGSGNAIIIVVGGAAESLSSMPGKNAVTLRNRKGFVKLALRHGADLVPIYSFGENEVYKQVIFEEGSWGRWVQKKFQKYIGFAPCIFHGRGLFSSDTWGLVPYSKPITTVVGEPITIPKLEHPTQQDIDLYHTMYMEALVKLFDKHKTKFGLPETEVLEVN
Put plainly: Measurement of inhibitory effect against DGAT2 enzyme activity (SPA, Phospholipid FlashPlate, [14C]-TG production). It counts as biochemical. As to conditions: concentration inhibiting [14C]-labeled triacyl glycerol (TG) production by 50%; 2 μg DGAT2-membrane protein from Sf-21 cells, 37° C. Here is the method: Experimental Example: Measurement of Inhibitory Effect Against DGAT2 Enzyme Activity
In order to prepare the pBacPAK9-DGAT2, which is DGAT2 expression vector, the human DGAT2 gene amplified by polymerase chain reaction (PCR) was cloned into the EcoR1 and Xho1 sites of the pBacPAK9 (clonctech) vector. The nucleotide sequence of the primers used in PCR was the forward primer 5′ […] and the reverse primer 5′ […]. The composition of the reaction solution was to contain 50 ng of cDNA clone (OriGene), 200 μM of dATP, dCTP, dTTP, dGTP, 200 nM of each primer, 1 unit of Tag DNA Polymerase (Toyobo), 1×PCR buffer, and the final volume was adjusted to 20 μl. The reaction conditions were denatured at 95° C. for 5 minutes, followed by 30 times of 94° C. for 20 seconds, 60° C. for 20 seconds, and 72° C. for 90 seconds, followed by further reaction at 72° C. for 7 minutes.
Recombinant human DGAT2 protein was expressed in Sf-21 cells, which are insect cells, by using the BacPack baculovirus expression system (Clontech). The brief manufacturing process is as follows. First, the pBacPAK9-DGAT2 expression vector was transfected with BacPAK6 virus DNA (Bsu36I digest) into sf21 cells using Bacfectin to prepare a recombinant DGAT2 expressing baculovirus. The thus prepared baculovirus was infected with Sf-21 cells at 10 MOI (multiplicity of infection), and after 72 hours, infected insect cells were collected and membrane proteins were isolated. For membrane protein separation, the cell pellet was dissolved in a sucrose solution containing 250 mM sucrose, 10 mM Tris (pH 7.4), and 1 mM ethylenediamine-tetraacetic acid (EDTA), and then homogenized by using a dounce homogenizer, and the supernatant was taken by centrifuging at 600×g for 15 minutes, and centrifuged at 100,000×g for 1 hour to discard the supernatant, and the remaining pellet was resuspended in 20 mM HEPES buffer (pH 7.4). The prepared DGAT2 overexpressing membrane protein was dispensed in 100 μl and stored at −80° C. until use. Protein concentration was quantified by using the BCA Protein Assay Kit (Thermo Scientific).
In vitro DGAT2 analysis was performed using a Phospholipid Flash Plate (PerkinElmer) based on the principle of SPA (Scintillation Proximity Assay). First, DGAT2 inhibition compounds serially diluted 5 times from 3 nM to 10 μM (final concentration, 1% DMSO) were mixed in a buffer solution containing 2 μg DGAT2-membrane protein and 20 mM HEPES, 20 mM MgCl2, 1 mg/mL BSA, 50 μM 1,2 sn-oleoyl glycerol (Sigma), put in a 96-well flash plate (FlashPlate) and reacted at 37° C. for 20 minutes, and then 1 μM [14C] ole oil CoA (PerkinElmer, NEC651050UC) was added to be a final volume of 100 μL and further reacted at 37° C. for 15 minutes. After the enzymatic reaction was completed, 100 μL of isopropanol was added, the plate was sealed with a film, and the plate was shaken slowly in a plate shaker. The next day, the amplified scintillation signal (cpm) in Topcounter (Packard) was measured to measure the degree of production of [14C]-labeled triacyl glycerol (TG) as a reaction product. The measured value when the compound was not treated was used as a positive control, and the measured value of the compound treated group was calculated as a relative % to measure the inhibition effect of the compound on TG production.
For the molecule `CCOc1ccccc1O[C@@H]1CCCN(c2cncc(NC(=O)Cc3cc(C(F)(F)F)cc(C(F)(F)F)c3)n2)C1` [Example 27, (R)-2-(3,5-bis(trifluoromethyl)phenyl)-N-(6-(3-(2-ethoxyphenoxy)piperidin-1-yl)pyrazin-2-yl)acetamide], the pIC50 is 7.31.
The result for `CCOc1ccccc1O[C@@H]1CCCN(c2cncc(NC(=O)CCc3ccccc3)n2)C1` [Example 29, (R)—N-(6-(3-(2-ethoxyphenoxy)piperidin-1-yl)pyrazin-2-yl)-3-phenylpropanamide] reads 7.74; that for `CCOc1ccccc1O[C@@H]1CCCN(c2cncc(NC(=O)Cc3cccc(Cl)c3)n2)C1` [Example 30, (R)-2-(3-chlorophenyl)-N-(6-(3-(2-ethoxyphenoxy)piperidin-1-yl)pyrazin-2-yl)acetamide], 7.54; that for `CCOc1ccccc1O[C@@H]1CCCN(c2cncc(NC(=O)C(C)(C)c3ccccc3)n2)C1` [Example 31, (R)—N-(6-(3-(2-ethoxyphenoxy)piperidin-1-yl)pyrazin-2-yl)-2-methyl-2-phenylpropanamide], 6.74.
The result for `CCOc1ccccc1O[C@@H]1CCCN(c2cncc(NC(=O)Cc3cccc(C(=O)O)c3)n2)C1` [Example 33, (R)-3-(2-((6-(3-(2-ethoxyphenoxy)piperidin-1-yl)pyrazin-2-yl)amino)-2-oxoethyl)benzoic acid] reads 5.35; that for `CCOc1ccccc1O[C@@H]1CCCN(c2cncc(NC(=O)Cc3ccc(CC(=O)O)cc3)n2)C1` [Example 34, (R)-2-(4-(2-((6-(3-(2-ethoxyphenoxy)piperidin-1-yl)pyrazin-2-yl)amino)-2-oxoethyl)phenyl)acetic acid], 5.96.
The result for `CCOc1ccccc1O[C@@H]1CCCN(c2cncc(NC(=O)Cc3ccc(CC(N)=O)cc3)n2)C1` [Example 35] reads 7.52; that for `CCOc1ccccc1O[C@@H]1CCCN(c2cncc(NC(=O)Cc3ccc(O)cc3)n2)C1` [Example 36, (R)—N-(6-(3-(2-ethoxyphenoxy)piperidin-1-yl)pyrazin-2-yl)-2-(4-hydroxyphenyl)acetamide], 7.92.
`CCOc1ccccc1O[C@@H]1CCCN(c2cncc(NC(=O)Cc3ccc(OCCCC(=O)O)cc3)n2)C1` [Example 37, (R)-4-(4-(2-((6-(3-(2-ethoxyphenoxy)piperidin-1-yl)pyrazin-2-yl)amino)-2-oxoethyl)phenoxy)butanoic acid]: the pIC50 was 6.34.
For `CCOc1ccccc1O[C@@H]1CCCN(c2cncc(NC(=O)Cc3ccc(OC(C)(C)C(=O)O)cc3)n2)C1` [Example 38], the pIC50 was 6.70.
The result for `CCOc1ccccc1O[C@@H]1CCCN(c2cncc(NC(=O)C(C)(C)c3ccc(C(C)(C)C(=O)O)cc3)n2)C1` [Example 39, (R)-2-(4-(1-((6-(3-(2-ethoxyphenoxy)piperidin-1-yl)pyrazin-2-yl)amino)-2-methyl-1-oxopropan-2-yl)phenyl)-2-methylpropanoic acid] reads 6.11.
The result for `CCOc1ccccc1O[C@@H]1CCCN(c2cncc(NC(=O)/C=C/c3ccc(C(=O)O)cc3)n2)C1` [Example 41, (R,E)-4-(3-((6-(3-(2-ethoxyphenoxy)piperidin-1-yl)pyrazin-2-yl)amino)-3-oxoprop-1-en-1-yl)benzoic acid] reads 5.51; that for `CCOc1ccccc1O[C@@H]1CCCN(c2cncc(NC(=O)/C(C)=C/c3ccc(C(=O)O)cc3)n2)C1` [Example 42, (R,E)-4-(3-((6-(3-(2-ethoxyphenoxy)piperidin-1-yl)pyrazin-2-yl)amino)-2-methyl-3-oxoprop-1-en-1-yl)benzoic acid], 5.89; that for `CCOc1ccccc1O[C@@H]1CCCN(c2cncc(NC(=O)C(C)Cc3ccc(C(=O)O)cc3)n2)C1` (stereo partly drawn) [Example 43, 4-(3-((6-((R)-3-(2-ethoxyphenoxy)piperidin-1-yl)pyrazin-2-yl)amino)-2-methyl-3-oxopropyl)benzoic acid], 6.48.
In the case of `CCOc1ccccc1O[C@@H]1CCCN(c2cncc(NC(=O)CCc3ccc(C(=O)O)c(F)c3)n2)C1` [Example 44, (R)-4-(3-((6-(3-(2-ethoxyphenoxy)piperidin-1-yl)pyrazin-2-yl)amino)-3-oxopropyl)-2-fluorobenzoic acid] it was 6.77.
Consider `CCOc1ccccc1O[C@@H]1CCCN(c2cncc(NC(=O)CCc3ccc(C(=O)O)c(C)c3)n2)C1` [Example 45, (R)-4-(3-((6-(3-(2-ethoxyphenoxy)piperidin-1-yl)pyrazin-2-yl)amino)-3-oxopropyl)-2-methylbenzoic acid], for which the pIC50 is 6.82.
On to `CCOc1ccccc1O[C@@H]1CCCN(c2cncc(NC(=O)CCc3ccc(C(=O)O)c(OC)c3)n2)C1` [Example 46, (R)-4-(3-((6-(3-(2-ethoxyphenoxy)piperidin-1-yl)pyrazin-2-yl)amino)-3-oxopropyl)-2-methoxybenzoic acid], for which the pIC50 was 6.29.
Take `CCOc1ccccc1O[C@@H]1CCCN(c2cncc(NC(=O)CCc3ccc(C(=O)O)c(Cl)c3)n2)C1` [Example 47, (R)-2-chloro-4-(3-((6-(3-(2-ethoxyphenoxy)piperidin-1-yl)pyrazin-2-yl)amino)-3-oxopropyl)benzoic acid]: the negative logarithm of the IC50 (pIC50) is 6.51.
On to `CCOc1ccccc1O[C@@H]1CCCN(c2cncc(NC(=O)CCc3cccc(C(=O)O)c3)n2)C1` [Example 48, (R)-3-(3-((6-(3-(2-ethoxyphenoxy)piperidin-1-yl)pyrazin-2-yl)amino)-3-oxopropyl)benzoic acid], for which the negative-log IC50 (pIC50) was 6.15.
In the case of `CCOc1ccccc1O[C@@H]1CCCN(c2cncc(NC(=O)CCc3ccc(CC(=O)O)cc3)n2)C1` [Example 49, (R)-2-(4-(3-((6-(3-(2-ethoxyphenoxy)piperidin-1-yl)pyrazin-2-yl)amino)-3-oxopropyl)phenyl)acetic acid] it was 7.00.
Take `CCOc1ccccc1O[C@@H]1CCCN(c2cncc(NC(=O)CCc3ccc(CC(N)=O)cc3)n2)C1` [Example 50]: the pIC50 is 8.02.
As for `CCOc1ccccc1O[C@@H]1CCCN(c2cncc(NC(=O)CCc3ccc(C(C)(C)C(=O)O)cc3)n2)C1` [Example 51, (R)-2-(4-(3-((6-(3-(2-ethoxyphenoxy)piperidin-1-yl)pyrazin-2-yl)amino)-3-oxopropyl)phenyl)-2-methylpropanoic acid], the negative-log IC50 (pIC50) was 7.48.
On to `CCOc1ccccc1O[C@@H]1CCCN(c2cncc(NC(=O)CCc3ccc(C4(C(=O)O)CC4)cc3)n2)C1` [Example 52, (R)-1-(4-(3-((6-(3-(2-ethoxyphenoxy)piperidin-1-yl)pyrazin-2-yl)amino)-3-oxopropyl)phenyl)cyclopropane-1-carboxylic acid], for which the pIC50 was 7.18.
Take `CCOc1ccccc1O[C@@H]1CCCN(c2cncc(NC(=O)CCc3cc(F)c(C(=O)O)c(F)c3)n2)C1` [Example 53, (R)-4-(3-((6-(3-(2-ethoxyphenoxy)piperidin-1-yl)pyrazin-2-yl)amino)-3-oxopropyl)-2,6-difluorobenzoic acid]: the pIC50 was 6.41.
In the case of `CCOc1ccccc1O[C@@H]1CCCN(c2cncc(NC(=O)CCc3cc(Cl)c(C(=O)O)c(Cl)c3)n2)C1` [Example 54, (R)-2,6-dichloro-4-(3-((6-(3-(2-ethoxyphenoxy)piperidin-1-yl)pyrazin-2-yl)amino)-3-oxopropyl)benzoic acid] it was 7.06.

Usually pIC50 stands for the negative decadic logarithm of the IC50, by convention in mol/L.
